Literature values as cited in PMC12737490, “Beta Toxins Isolated from the Scorpion Centruroides hirsutipalpus (Scorpiones; Buthidae) Affect the Function of Sodium Channels of Mammals” (Toxins, 2025).

Tests used:
[1] = system: hNav1.6 channel; conditions: ref [13]; cited from earlier work
From the text: When comparing the sequence of the new toxins β-NaScTxs from C. hirsutipalpus with sequences from different scorpions (Figure 3A) using BLASTp version 2.11.0, it is shown that the sequence of the toxin Chirp7 is 100% identical to the sodium toxin Ct1a (UniProt accession P18926) from the C. tecomanus scorpion.

[2] = system: Nav1.2; conditions: ref [34]; cited from earlier work
From the text: (§1) The Chirp9 peptide in the venom of C. hirsutipalpus has an abundance of 2.8%. It has an experimental mass of 7790.1 Da and a theoretical mass of 7790.9 Da. The sequence of Chirp9 (Figure 3B) shares 97% identity with the Cl13 toxin from the C. limpidus scorpion (UniProt C0HK69) and differs by only two amino acid substitutions: L5I and Q54A. These substitutions could modulate the toxic properties of the venom through structural alterations in the peptide that influence its interaction with target sites, possibly leading to increased potency or stability. The Cl13 toxin is found in C. limpidus ve ...

[3] = system: Nav1.4; conditions: ref [34]; cited from earlier work
From the text: as §1

[4] = system: Nav1.5; conditions: ref [34]; cited from earlier work
From the text: as §1

[5] = system: Nav1.6; conditions: ref [34]; cited from earlier work
From the text: as §1

[6] = system: sodium channel; conditions: stated as reported earlier; no reference in the sentence; cited from earlier work

| Substance | effect on hNav1.6 channel [1] | effect on sodium currents [2] | effect on sodium currents [3] | effect on sodium currents [4] | effect on sodium currents [5] | effect on sodium channel inactivation kinetics [6] |
| --- | --- | --- | --- | --- | --- | --- |
| Ct1a: sodium toxin Ct1a from the C. tecomanus scorpion, sequence 100% identical to Chirp7 | altering channel activation by lowering the action potential and decreasing the current amplitude |  |  |  |  |  |
| Cl13: beta toxin from the C. limpidus scorpion, 97% identity with Chirp9 |  | modifies sodium currents | modifies sodium currents | modifies sodium currents | modifies sodium currents | slow down the kinetics of sodium channel inactivation |
